Reference: patent US10391096B2, “Method for treating thrombotic disorders using quercetin-containing compositions” (Quercegen Pharmaceuticals LLC, priority 2011, dated 2019)

Tests used:
[1] = system: D-dimer; experiment: D-dimer level in blood of hypertensive patients treated with quercetin; assay type: in vivo, humans
Source text: As mentioned above, PDI plays a critical role in the initiation of the coagulation cascade. By blocking this critical enzyme activity, quercetin can prevent thrombus formation. The antithrombotic activity of quercetin can be evaluated in humans by measuring D-dimer levels in plasma samples from patients treated with quercetin. D-dimer, a small protein fragment present in the blood, is a fibrin degradation product. The level of D-dimer in the blood increases after a thrombotic event due to its release from blood clots via fibrinolysis. […] Hypertensive patients are prone to thrombotic events.

[2] = system: platelet aggregation; conditions: in vitro; cited from earlier work
[3] = hypertensive patients; cited from earlier work

For `O=c1c(O)c(-c2ccc(O)c(O)c2)oc2cc(O)cc(O)c12` [Quercetin, quercetin], the “level of D-dimer in blood” value [1] is given as “reduction in the level of D-dimer”, the platelet aggregation [2] is given as “inhibit platelet aggregation” and the blood pressure [3] is given as “reduce blood pressure”.
